Assay results from patent US11591355B2 (Peloton Therapeutics, Inc., priority 2017, dated 2023).
pIC50: −log10 of the molar value.

How the values were obtained:
[1] = molecular target: T1, CD73 on U138 human neuroglioma cells (Homo sapiens, UniProt P21589); experiment: CD73 Cell-Based Assay; details: U138 cells, AMP substrate, 2 hours at 37° C., inorganic phosphate by malachite green
T1 construct: U138 cells were obtained from ATCC and cultured in DMEM with 10% FBS; host or cells: U138 human neuroglioma cells
T1 sequence (P21589 27-549): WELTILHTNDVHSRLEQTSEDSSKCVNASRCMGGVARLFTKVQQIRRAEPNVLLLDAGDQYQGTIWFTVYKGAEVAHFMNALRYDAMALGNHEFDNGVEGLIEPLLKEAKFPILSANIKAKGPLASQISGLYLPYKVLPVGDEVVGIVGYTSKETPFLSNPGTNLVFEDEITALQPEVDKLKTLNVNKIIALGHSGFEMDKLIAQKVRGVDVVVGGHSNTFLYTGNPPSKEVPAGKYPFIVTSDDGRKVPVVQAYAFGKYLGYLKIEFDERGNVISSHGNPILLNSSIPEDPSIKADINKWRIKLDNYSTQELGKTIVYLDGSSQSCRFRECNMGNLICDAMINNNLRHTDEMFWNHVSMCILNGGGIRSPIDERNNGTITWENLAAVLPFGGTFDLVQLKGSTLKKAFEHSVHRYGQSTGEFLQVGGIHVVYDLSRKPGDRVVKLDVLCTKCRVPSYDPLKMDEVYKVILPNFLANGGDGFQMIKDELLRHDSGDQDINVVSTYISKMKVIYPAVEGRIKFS
Summary of the method: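 Whole U138 cells washed free of phosphate were incubated with 200 μM AMP (mixture concentration before equal-volume addition) plus compound in HEPES-buffered saline, pH 7.4, for 2 h at 37 °C, 5% CO2. Adenosine-forming activity read as inorganic phosphate released into supernatant by malachite green.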

Human CD73 = molecular target: T2, Human CD73 (Homo sapiens, UniProt P21589); experiment: CD73 Enzyme Assay; format: biochemical; details: 0.25 nM hCD73, 25 μM AMP, kinetic read at 360 nm; read-out: CD73 Enzyme Assay IC50
T2 construct: purchased R&D Systems; host or cells: CHO cells
T2 sequence (P21589 27-549): T1 sequence (P21589 27-549)

pIC50 [1]	pIC50 (Human CD73)	SMILES
> 8.00	> 8.00	O=P(O)(O)CS(=O)(=O)C[C@H]1O[C@@H](n2ccc3c(NC4CCCC4)nc(C(F)F)nc32)[C@H](O)[C@@H]1O [Compound 289, [(2S,3S,4R,5R)-5-[4-(cyclopentylamino)-2-(difluoromethyl)-pyrrolo[2,3-d]-pyrimidin-7-yl]-3,4-dihydroxy-tetrahydro-furan-2-yl]methyl-sulfonylmethylphos-phonic acid]
7.00 to 8.00	> 8.00	C[C@H](Nc1nc(C#N)nc2c1ccn2[C@@H]1O[C@H](COCP(=O)(O)O)[C@@H](O)[C@H]1O)c1cccc(F)c1 [Compound 75, [(2R,3S,4R,5R)-5-[2-cyano-4-[[(1S)-1-(3-fluorophenyl)ethyl]-amino]pyrrolo[2,3-d]-pyrimidin-7-yl]-3,4-dihydroxy-tetrahydro-furan-2-yl]methoxy-methylphosphonic acid]
> 8.00	> 8.00	C[C@@H](Nc1nc(Cl)nc2c1ccn2[C@@H]1O[C@H](COCP(=O)(O)O)[C@@H](O)[C@H]1O)c1ccc(C#N)cc1 [Compound 89, [(2R,3S,4R,5R)-5-[2-chloro-4-[[(1R)-1-(4-cyanophenyl)ethyl]-amino]pyrrolo[2,3-d]-pyrimidin-7-yl]-3,4-dihydroxy-tetrahydro-furan-2-yl]methoxy-methylphosphonic acid]
> 8.00	7.00 to 8.00	O=P(O)(O)COC[C@H]1O[C@@H](n2ccc3c(N4CCCCC4)nc(Cl)nc32)[C@H](O)[C@@H]1O [Compound 126, [(2R,3S,4R,5R)-5-[2-chloro-4-(1-piperidyl)-pyrrolo[2,3-d]-pyrimidin-7-yl]-3,4-dihydroxy-tetrahydro-furan-2-yl]methoxy-methylphosphonic acid]
> 8.00	> 8.00	O=P(O)(O)CS(=O)(=O)C[C@H]1O[C@@H](n2ccc3c(NC4CCC(F)(F)CC4)nc(Cl)nc32)[C@H](O)[C@@H]1O [Compound 182, [(2S,3S,4R,5R)-5-[2-chloro-4-[(4,4-difluoro-cyclohexyl)amino]-pyrrolo[2,3-d]-pyrimidin-7-yl]-3,4-dihydroxy-tetrahydro-furan-2-yl]methyl-sulfonylmethylphos-phonic acid]
> 8.00	> 8.00	C[C@@H](Nc1nc(C#N)nc2c1ccn2[C@@H]1O[C@H](COCP(=O)(O)O)[C@@H](O)[C@H]1O)c1cccc(F)c1 [Compound 81, [(2R,3S,4R,5R)-5-[2-cyano-4-[[(1R)-1-(3-fluorophenyl)ethyl]-amino]pyrrolo[2,3-d]-pyrimidin-7-yl]-3,4-dihydroxy-tetrahydro-furan-2-yl]methoxy-methylphosphonic acid]
6.00 to 7.00	7.00 to 8.00	CC(C)Nc1nc(Cl)nc2c1ncn2[C@@H]1O[C@H](COCP(=O)(O)O)[C@@H](O)[C@H]1O [Compound 15, [(2R,3S,4R,5R)-5-[2-chloro-6-(isopropyl-amino)purin-9-yl]-3,4-dihydroxy-tetra-hydrofuran-2-yl]-methoxymethylphos-phonic acid]
> 8.00	> 8.00	O=P(O)(O)COC[C@H]1O[C@@H](n2ncc3c(N4CCC(F)(F)C4)nc(Cl)nc32)[C@H](O)[C@@H]1O [Compound 275, [(2R,3S,4R,5R)-5-[6-chloro-4-(3,3-difluoro-pyrrolidin-1-yl)-pyrazolo[3,4-d]-pyrimidin-1-yl]-3,4-dihydroxy-tetrahydro-furan-2-yl]methoxy-methylphosphonic acid]
> 8.00	> 8.00	O=P(O)(O)COC[C@H]1O[C@@H](n2ccc3c(NC4CCC4)nc(Cl)nc32)[C@H](O)[C@@H]1O [Compound 109, [(2R,3S,4R,5R)-5-[2-chloro-4-(cyclobutyl-amino)pyrrolo[2,3-d]-pyrimidin-7-yl]-3,4-dihydroxy-tetrahydro-furan-2-yl]methoxy-methylphosphonic acid]
